From patent publication US20240092799A1, “MNK INHIBITORS” (Hepagene Therapeutics (HK) Limited, priority 2020, published 2024)

biological target: MNK2 (Homo sapiens (Human), UniProt Q9HBH9); test: MNK Biochemical Enzymatic Assay (ADP-Glo), MNK2 binding assay
Protocol: MNK Biochemical Enzymatic Assay. This protocol establishes the binding assays for MNK1 and MNK2 using ADP-Glo assay. MNK phosphorylates the substrate and converts ATP to ADP, which was detected by Envision and used to reflect the reminding activity of MNK. Reagents and equipment used in the assay are listed below, followed by the protocol.
• a) Add 50 μL compound to 384-well dilution plate • b) Dilute compound 1:3 in succession in DMSO for each column for 10+0 pts (refer to dilution plate map) • c) Transfer 0.1 μL diluted compound solution in each row to 384 assay plate using Echo, each column containing 2 replicates (refer to assay plate map) • d) Add 5 μL enzyme working solution to 384-well assay plate, centrifuge 1000 RPM for 1 min • e) Incubate at 25° C. for 15 min • f) Add 5 μL substrate working solution to initiate reaction • g) Incubate at 25° C. for 60 min • h) Add 10 μL ADP Glo reagent, centrifuge 1000 RPM for 1 min • i) Incubate at 25° C. for 60 min • j) Add 20 μL kinase detection reagent, centrifuge 1000 RPM for 1 min • k) Incubate at 25° C. for 60 min • l) Read on Envision for US LUM as RLU • m) Data analysis: IC50s were determined based on a non-linear regression analysis of data collected.

Sequence of MNK2 (Q9HBH9 whole entry): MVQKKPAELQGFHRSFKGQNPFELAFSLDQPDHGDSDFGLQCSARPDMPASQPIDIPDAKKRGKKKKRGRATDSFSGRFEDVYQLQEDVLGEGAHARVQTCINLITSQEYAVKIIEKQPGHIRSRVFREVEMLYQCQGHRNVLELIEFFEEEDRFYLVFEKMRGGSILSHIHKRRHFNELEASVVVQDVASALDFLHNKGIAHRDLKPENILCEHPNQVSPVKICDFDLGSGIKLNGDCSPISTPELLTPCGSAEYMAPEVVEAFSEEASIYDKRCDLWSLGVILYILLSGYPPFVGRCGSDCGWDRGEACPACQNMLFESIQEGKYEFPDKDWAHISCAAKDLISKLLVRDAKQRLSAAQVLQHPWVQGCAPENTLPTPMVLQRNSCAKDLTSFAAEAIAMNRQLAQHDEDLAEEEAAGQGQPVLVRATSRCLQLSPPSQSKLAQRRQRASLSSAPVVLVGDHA

IC50	Structure (SMILES)
10 to 100 nM	O=C1NC2(CCCCC2)c2cc(Nc3cc(Cl)ncn3)sc21 [Compound XXIII-G, 2′-((6-Chloropyrimidin-4-yl)amino)spiro[cyclohexane-1,4′-thieno[2,3-c]pyrrol]-6′(5′H)-one]
10 to 100 nM	O=C1NC2(CCCCC2)c2cc(Nc3cc(N[C@@H]4CCOC4)ncn3)sc21 [Compound XXIV-M, (R)-2′-((6-((tetrahydrofuran-3-yl)amino)pyrimidin-4-yl)amino)spiro[cyclohexane-1,4′-thieno[2,3-c]pyrrol]-6′(5′H)-one]
100 to 1000 nM	Nc1cc(Nc2sc3c(c2Cl)C2(CCCCC2)NC3=O)ncn1 [Compound XXI, 2′-((6-Aminopyrimidin-4-yl)amino)-3′-chlorospiro[cyclohexane-1,4′-thieno[2,3-c]pyrrol]-6′(5′H)-one]
10 to 100 nM	CC(=O)N(C)c1cccc(Nc2cc(Nc3nc4c(s3)C(=O)NC43CCCCC3)ncn2)c1 [Compound XXVIII-I, N-methyl-N-(3-((6-((6′-oxo-5′,6′-dihydrospiro[cyclohexane-1,4′-pyrrolo[3,4-d]thiazol]-2′-yl)amino)pyrimidin-4-yl)amino)phenyl)acetamide]
100 to 1000 nM	Cc1cc(Nc2ccnc(N[C@H]3CCOC3)c2)[n+]([O-])c2c1C(=O)NC21CCCCC1 [Compound XXIX-H, (S)-4′-methyl-5′-oxo-2′-((2-((tetrahydrofuran-3-yl)amino)pyridin-4-yl)amino)-5′,6′-dihydrospiro[cyclohexane-1,7′-pyrrolo[3,4-b]pyridine] 1′-oxide]
10 to 100 nM	O=C1NC2(CCCCC2)c2cc(Nc3cc(Nc4ccccc4F)ncn3)sc21 [Compound XXIV-E, 2′-((6-((2-fluorophenyl)amino)pyrimidin-4-yl)amino)spiro[cyclohexane-1,4′-thieno[2,3-c]pyrrol]-6′(5′H)-one]
> 1000 nM	CC1(C)COC(Nc2cc(Nc3nc4c(s3)C(=O)NC43CCCCC3)ncn2)=N1 [Compound XXVIII-E, 2′-((6-((4,4-dimethyl-4,5-dihydrooxazol-2-yl)amino)pyrimidin-4-yl)amino)spiro[cyclohexane-1,4′-pyrrolo[3,4-d]thiazol]-6′(5′H)-one]
10 to 100 nM	Cc1cc(Nc2cc(NC3CNC3)ncn2)[n+]([O-])c2c1C(=O)NC21CCCCC1 [Compound XXIX-Q, 2′-((6-(azetidin-3-ylamino)pyrimidin-4-yl)amino)-4′-methyl-5′-oxo-5′,6′-dihydrospiro[cyclohexane-1,7′-pyrrolo[3,4-b]pyridine] 1′-oxide]
> 1000 nM	Cc1cc(Nc2ncnc(Nc3ccccn3)c2C)[n+]([O-])c2c1C(=O)NC21CCCCC1 [Compound XXIX-AN, 4′-methyl-2′-((5-methyl-6-(pyridin-2-ylamino)pyrimidin-4-yl)amino)-5′-oxo-5′,6′-dihydrospiro[cyclohexane-1,7′-pyrrolo[3,4-b]pyridine] 1′-oxide]
10 to 100 nM	O=C1NC2(CCCCC2)c2cc(Nc3cc(NCc4cccs4)ncn3)sc21 [Compound XXIV, 2′-((6-((Thiophen-2-ylmethyl)amino)pyrimidin-4-yl)amino)spiro[cyclohexane-1,4′-thieno[2,3-c]pyrrol]-6′(5′H)-one]
10 to 100 nM	O=C1NC2(CCCCC2)c2nc(Nc3cc(N[C@H]4C[C@H](O)C4)ncn3)sc21 [Compound XXVIII-N, Trans-2′-((6-(((1r,3r)-3-hydroxycyclobutyl)amino)pyrimidin-4-yl)amino)spiro[cyclohexane-1,4′-pyrrolo[3,4-d]thiazol]-6′(5′H)-one]
10 to 100 nM	Cc1cc(Nc2cc(Nc3ccncc3)ncn2)[n+]([O-])c2c1C(=O)NC21CCCCC1 [Compound XXIX-AK, 4′-methyl-5′-oxo-2′-{[6-(pyridin-4-ylamino)pyrimidin-4-yl]amino}-6′H-Spiro[cyclohexane-1,7′-pyrrolo[3,4-b]pyridin]-1′-ium-1′-olate]
10 to 100 nM	CC(=O)N1CC(Nc2cc(Nc3cc(C)c4c([n+]3[O-])C3(CCCCC3)NC4=O)ncn2)C1 [Compound XXIX-AC, 2′-((6-((1-acetylazetidin-3-yl)amino)pyrimidin-4-yl)amino)-4′-methyl-5′-oxo-5′,6′-dihydrospiro[cyclohexane-1,7′-pyrrolo[3,4-b]pyridine] 1′-oxide]
10 to 100 nM	Cc1c(N)ncnc1Nc1cc2c(s1)C(=O)NC21CCCCC1 [Compound X-D, 2′-((6-amino-5-methylpyrimidin-4-yl)amino)spiro[cyclohexane-1,4′-thieno[2,3-c]pyrrol]-6′(5′H)-one]
0.1 to 10 nM	Cc1cc(Nc2cc(Nc3ccnn3C3CCNCC3)ncn2)[n+]([O-])c2c1C(=O)NC21CCCCC1 [Compound XXIX-AAR, 4′-methyl-5′-oxo-2′-((6-((1-(piperidin-4-yl)-1H-pyrazol-5-yl)amino)pyrimidin-4-yl)amino)-5′,6′-dihydrospiro[cyclohexane-1,7′-pyrrolo[3,4-b]pyridine] 1′-oxide]
10 to 100 nM	Nc1cc(Nc2cc3c(s2)C(=O)NC32CCNCC2)ncn1 [Compound VIII-A, 2′-((6-aminopyrimidin-4-yl)amino)spiro[piperidine-4,4′-thieno[2,3-c]pyrrol]-6′(5′H)-one]
10 to 100 nM	Cc1cc(Nc2cc(NC3CCCC3)ncn2)[n+]([O-])c2c1C(=O)NC21CCCCC1 [Compound XXIX-L, 2′-((6-(cyclopentylamino)pyrimidin-4-yl)amino)-4′-methyl-5′-oxo-5′,6′-dihydrospiro[cyclohexane-1,7′-pyrrolo[3,4-b]pyridine] 1′-oxide]
10 to 100 nM	O=C1NC2(CCCCC2)c2cc(Nc3cc(N[C@@H]4CCCOC4)ncn3)sc21 [Compound XXIV-F, (R)-2′-((6-((tetrahydro-2H-pyran-3-yl)amino)pyrimidin-4-yl)amino)spiro[cyclohexane-1,4′-thieno[2,3-c]pyrrol]-6′(5′H)-one]
100 to 1000 nM	Cc1cc(Nc2cc(NC3CCS(=O)(=O)C3)ncn2)[n+]([O-])c2c1C(=O)NC21CCCCC1 (centres unmarked) [Compound XXIX-AR, 2′-((6-((1,1-dioxidotetrahydrothiophen-3-yl)amino)pyrimidin-4-yl)amino)-4′-methyl-5′-oxo-5′,6′-dihydrospiro[cyclohexane-1,7′-pyrrolo[3,4-b]pyridine] 1′-oxide]
10 to 100 nM	O=C1NC2(CCCCC2)c2cc(Nc3cc(NC(=O)C4CC4)ncn3)sc21 [Compound XX-A, N-(6-((6′-Oxo-5′,6′-dihydrospiro[cyclohexane-1,4′-thieno[2,3-c]pyrrol]-2′-yl)amino)pyrimidin-4-yl)cyclopropanecarboxamide]
> 1000 nM	COc1c(Nc2nc3c(s2)C(=O)NC32CCCCC2)ncnc1N[C@H]1CCOC1 [Compound XXVIII-F, (S)-2′-((5-methoxy-6-((tetrahydrofuran-3-yl)amino)pyrimidin-4-yl)amino)spiro[cyclohexane-1,4′-pyrrolo[3,4-d]thiazol]-6′(5′H)-one]
10 to 100 nM	Cc1cc(Nc2cc(N[C@H]3C[C@H](O)C3)ncn2)[n+]([O-])c2c1C(=O)NC21CCCCC1 [Compound XXIX-T, trans-2′-((6-(((1r,3r)-3-hydroxycyclobutyl)amino)pyrimidin-4-yl)amino)-4′-methyl-5′-oxo-5′,6′-dihydrospiro[cyclohexane-1,7′-pyrrolo[3,4-b]pyridine] 1′-oxide]
10 to 100 nM	O=C1NC2(CCCCC2)c2cc(Nc3cc(NC(=O)C4CCNC4)ncn3)sc21 (centres unmarked) [Compound XXIII-V, N-(6-((6′-oxo-5′,6′-dihydrospiro[cyclohexane-1,4′-thieno[2,3-c]pyrrol]-2′-yl)amino)pyrimidin-4-yl)pyrrolidine-3-carboxamide]
10 to 100 nM	Cc1cc(Nc2cc(NCC3CCCO3)ncn2)[n+]([O-])c2c1C(=O)NC21CCCCC1 (centres unmarked) [Compound XXIX-P, 4′-methyl-5′-oxo-2′-((6-(((tetrahydrofuran-2-yl)methyl)amino)pyrimidin-4-yl)amino)-5′,6′-dihydrospiro[cyclohexane-1,7′-pyrrolo[3,4-b]pyridine] 1′-oxide]
10 to 100 nM	O=C1NC2(CCCCC2)c2nc(Nc3cc(N[C@H]4CCCOC4)ncn3)sc21 [Compound XXVIII-D, (S)-2′-((6-((tetrahydro-2H-pyran-3-yl)amino)pyrimidin-4-yl)amino)spiro[cyclohexane-1,4′-pyrrolo[3,4-d]thiazol]-6′(5′H)-one]
10 to 100 nM	Cc1cc(Nc2cc(Nc3cccnc3)ncn2)[n+]([O-])c2c1C(=O)NC21CCCCC1 [Compound XXIX-AJ, 4′-methyl-5′-oxo-2′-((6-(pyridin-3-ylamino)pyrimidin-4-yl)amino)-5′,6′-dihydrospiro[cyclohexane-1,7′-pyrrolo[3,4-b]pyridine] 1′-oxide]
100 to 1000 nM	O=C1NC2(CCCCC2)c2cc(Nc3cc(NC4CCOCC4)ncn3)sc21 [Compound XXIV-D, 2′-((6-((tetrahydro-2H-pyran-4-yl)amino)pyrimidin-4-yl)amino)spiro[cyclohexane-1,4′-thieno[2,3-c]pyrrol]-6′(5′H)-one]
10 to 100 nM	O=C1NC2(CCCCC2)c2cc(Nc3cc(Nc4cccnc4)ncn3)sc21 [Compound XXIII-Z]
10 to 100 nM	Cc1cccnc1Nc1cc(Nc2cc(C)c3c([n+]2[O-])C2(CCCCC2)NC3=O)ncn1 [Compound XXIX-AZ, 4′-methyl-2′-((6-((3-methylpyridin-2-yl)amino)pyrimidin-4-yl)amino)-5′-oxo-5′,6′-dihydrospiro[cyclohexane-1,7′-pyrrolo[3,4-b]pyridine] 1′-oxide]
